Data as given in patent US12564590B2, “Combinations of menin inhibitors and CYP3A4 inhibitors and methods of use thereof” (Syndax Pharmaceuticals, Inc., priority 2020, dated 2026).

Tests used:
[1] = target: T1, MLL1 binding pocket on menin (Homo sapiens, UniProt O00255); assay: binding to the MLL1 binding pocket on menin
T1 sequence (O00255 1-610): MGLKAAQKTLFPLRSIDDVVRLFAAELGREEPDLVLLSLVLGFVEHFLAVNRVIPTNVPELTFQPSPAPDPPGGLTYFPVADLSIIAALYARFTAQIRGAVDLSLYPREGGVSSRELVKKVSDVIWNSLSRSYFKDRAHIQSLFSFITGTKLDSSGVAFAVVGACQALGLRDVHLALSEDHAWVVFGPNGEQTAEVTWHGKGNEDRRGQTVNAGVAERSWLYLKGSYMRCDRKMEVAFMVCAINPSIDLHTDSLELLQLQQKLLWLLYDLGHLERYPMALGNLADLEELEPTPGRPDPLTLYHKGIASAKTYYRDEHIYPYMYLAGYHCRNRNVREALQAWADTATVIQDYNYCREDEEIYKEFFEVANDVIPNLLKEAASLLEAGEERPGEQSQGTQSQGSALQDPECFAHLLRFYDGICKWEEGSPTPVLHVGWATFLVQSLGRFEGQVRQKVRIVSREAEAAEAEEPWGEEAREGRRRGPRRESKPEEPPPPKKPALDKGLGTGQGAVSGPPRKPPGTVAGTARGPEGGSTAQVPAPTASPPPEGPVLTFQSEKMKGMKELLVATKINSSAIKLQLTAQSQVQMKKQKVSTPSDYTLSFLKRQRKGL

[2] = system: cells harboring MLLr fusions; assay: activity in cells harboring MLLr fusions; format: cell-based
[3] = system: leukemic xenograft models; assay: leukemic xenograft / nonclinical survival models; format: in vivo; details: in combination with a CYP3A4 inhibitor; for survival benefit in nonclinical models: oral dosing
[4] = system: NPM1c mutant AML patient-derived xenograft models; details: orally active; cited from earlier work
NPM1c cells = details: leading to growth arrest, terminal differentiation and cell death; cited from earlier work

binding affinity to the MLL1 binding pocket on menin [1] | Compound | activity across a range of cells harboring MLLr fusions [2] | activity in multiple leukemic xenograft models [3] | survival benefit in nonclinical models [3] | anti-leukemic activity [4] | effect on HOXA MEIS1 transcription program (NPM1c cells)
high affinity | CC(C)N(C(=O)c1cc(F)ccc1Oc1cncnc1N1CC2(CCN(C[C@H]3CC[C@H](NS(C)(=O)=O)CC3)CC2)C1)C(C)C [Formula I, 5-fluoro-N,N-diisopropyl-2-((4-(7-(((1r,4r)-4-(methylsulfonamido)cyclohexyl)methyl)-2,7-diazaspiro[3.5]nonan-2-yl)pyrimidin-5-yl)oxy)benzamide] | displays activity | robust activity | profound survival benefit |  | 
high affinity | CCN(C(=O)c1cc(F)ccc1Oc1cncnc1N1CC2(CCN(C[C@H]3CC[C@H](NS(=O)(=O)CC)CC3)CC2)C1)C(C)C [Formula II, N-ethyl-2-((4-(7-(((1r,4r)-4-(ethylsulfonamido)cyclohexyl)methyl)-2,7-diazaspiro[3.5]nonan-2-yl)pyrimidin-5-yl)oxy)-5-fluoro-N-isopropylbenzamide] | displays activity | robust activity | profound survival benefit |  | 
 | CNc1nc(NC2CCN(Cc3ccc4c(cc(C#N)n4C[C@H](C)N4CCN(S(C)(=O)=O)CC4)c3C)CC2)c2cc(CC(F)(F)F)sc2n1 [KO-539] |  |  |  | robust anti-leukemic activity | 
 | Cc1c(CN2CCC(Nc3ncnc4sc(CC(F)(F)F)cc34)CC2)ccc2c1cc(C#N)n2Cc1cn[nH]c1 [MI-503] |  |  |  |  | suppress the HOXA MEIS1 transcription program
